Test results published in patent publication US8785470B2, “Heterocyclic compounds and uses thereof” (Infinity Pharmaceuticals, Inc., priority 2011, dated 2014).
Like-named read-outs stand apart in the source and are kept apart here.

Columns and labels:
PI3Kγ = molecular target: T1, PI3Kγ (Homo sapiens, UniProt P48736); assay: PI3-Kinase HTRF assay, PI3Kγ; assay type: biochemical; conditions: bins Greater than 10 μM and Greater than 1 μM to 10 μM; 10 μM ATP, PIP2 at 10 μM
T1 construct: purchased Millipore Corporation 14-558-K
Text: (§1) A PI3-Kinase HTRF® assay kit (cat No. 33-016) purchased from Millipore Corporation was used to screen compounds provided herein. This assay used specific, high affinity binding of the GRPI pleckstrin homology (PH) domain to PIP3, the product of a Class 1A or 1B PI3 Kinase acting on its physiological substrate PIP2. During the detection phase of the assay, a complex was generated between the GST-tagged PH domain and biotinylated short chain PIP3. The biotinylated PIP3 and the GST-tagged PH domain recruited fluorophores (Streptavidin-Allophycocyanin and Europium-labeled anti-GST respectively) to form the fluorescence resonance energy transfer (FRET) architecture, generating a stable time-resolved FRET signal. The FRET complex was disrupted in a competitive manner by non-biotinylated PIP3, a product formed in the PI3 Kinase assay.
(§2) PI3 Kinase α, β, γ and δ activity was assayed using the PI3 Kinase HTRF® assay kit (catalogue No. 33-016) purchased from Millipore Corporation. Purified recombinant PI3Kα (catalogue No. 14-602-K), PI3Kβ (catalogue No. 14-603-K), PI3Kγ (catalogue No. 14-558-K) and PI3Kδ (catalogue No. 14-604-K) were obtained from Millipore Corporation. Purified recombinant PI3K enzyme was used to catalyze the phosphorylation of phosphatidylinositol 4,5-bisphosphate (PIP2 at 10 μM) to phosphatidylinositol 3,4,5-trisphosphate (PIP3) in the presence of 10 μM ATP. The assay was carried out in 384-well format and detected using a Perkin Elmer EnVision Xcite Multilabel Reader. Emission ratios were converted into percent inhibitions and imported into GraphPad Prism software. The concentration necessary to achieve inhibition of enzyme activity by 50% (IC50) was calculated using concentrations ranging from 20 μM to 0.1 nM (12-point curve). IC50 values were determined using a nonlinear regression model available in GraphPad Prism 5. […]

[1] = tested on: phospho-AKT in RAW 264.7 cells (PI3Kγ); assay: PI3Kγ selective assay, phospho-AKT in RAW 264.7 cells; assay type: cell-based; conditions: Mus musculus, RAW264.7, stimulated with C5a, read-out: IC50 for phospho-AKT, RAW 264.7 cell model
Text: A compound's ability in selectively inhibiting PI3Kγ can be assessed using RAW264.7 macrophages. Briefly, serum-starved PAW264.7 cells are stimulated with a known GPCR agonist C5a. (See, e.g., Camps et al., Nature Medicine (2005) 11(9): 936-943). Cells can be treated with test compounds prior to, simultaneously with, or subsequent to the stimulation by C5a. RAW 264.7 cells respond to the complement component fragment C5a through activation of the C5a receptor, and the C5a receptor activates macrophages and induces cell migration. Test compounds' ability to inhibit C5a-mediated AKT phosphorylation is indicative of selective inhibition of PI3Kγ. Thus, by monitoring the reduction of phospho-AKT in stimulated RAW 264.7 cells (using for example, phospho-AKT antibodies), a compound's potential efficacy in selectively inhibiting PI3Kγ can be assessed.

PI3Kβ = molecular target: T2, PI3Kβ (Homo sapiens, UniProt P42338); assay: PI3-Kinase HTRF assay, PI3Kβ; assay type: biochemical; conditions: bins Greater than 10 μM and Greater than 1 μM to 10 μM; 10 μM ATP, PIP2 at 10 μM
T2 construct: purchased Millipore Corporation 14-603-K
How it was run: (§3)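 Competitive time-resolved FRET readout of PIP3 formed from 10 μM PIP2 with 10 μM ATP, 1 h at room temperature, by each recombinant human isoform (α, β, γ, δ; 0.25-0.3 μg/ml). Compound (2% DMSO final) was preincubated 15 min with enzyme and substrate; IC50 fitted over 20 μM–0.1 nM, 12 points.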

PI3Kδ = molecular target: T3, PI3Kδ (Homo sapiens, UniProt O00329); assay: PI3-Kinase HTRF assay, PI3Kδ; assay type: biochemical; conditions: bins Greater than 10 μM and Greater than 1 μM to 10 μM; 10 μM ATP, PIP2 at 10 μM
T3 construct: purchased Millipore Corporation 14-604-K
Text: as §1, §2

[2] = tested on: phospho-AKT in RAJI cells (PI3Kδ); assay: PI3Kδ selective assay, phospho-AKT in RAJI cells; assay type: cell-based; conditions: RAJI cells stimulated with anti-human IgM; read-out: IC50 for phospho-AKT, RAJI cell model
Text: A compound's ability in selectively inhibiting PI3Kδ can be assessed using RAJI cells, i.e., B lymphocyte cells derived from lymphoma patients. Briefly, serum-starved RAJI cells are stimulated with anti-human IgM, thereby causing signaling through the B-cell receptors, as described in, for example, He et al., Leukemia Research (2009) 33: 798-802. B-cell receptor signaling is important for the activation, differentiation, and survival of B cells and certain B-cell derived cancers. Reduction of phospho-AKT is indicative of compounds that may inhibit B-cell proliferation and function in certain diseases. By monitoring the reduction of phospho-AKT in stimulated RAJI cells (using for example, phospho-AKT antibodies), a compound's potential efficacy in selectively inhibiting PI3Kδ can be assessed.

PI3Kα = molecular target: T4, PI3Kα (Homo sapiens, UniProt P42336); assay: PI3-Kinase HTRF assay, PI3Kα; assay type: biochemical; conditions: bins Greater than 10 μM and Greater than 1 μM to 10 μM; 10 μM ATP, PIP2 at 10 μM; read-out: IC50 P13Kα
T4 construct: purchased Millipore Corporation 14-602-K
How it was run: as §3

Balb/c splenic B cells = assay: B cell activation and proliferation assay; assay type: cell-based; conditions: Mus musculus, Greater than 1 μM to 10 μM, read-out: B cell proliferation EC50
How it was run: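 Read-out is metabolic activity by Alamar Blue reduction (5 h, 560Ex/590Em) after 72 h at 37° C, reported as IC50 or EC50. Compound (0.2% DMSO) was added 30 min before a cocktail holding 10 μg/ml LPS or 5 μg/ml F(ab′)2 anti-IgM with 2 ng/ml mouse IL4. Cells were purified Balb/c splenic B cells, 50.000 per well.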

[3] = ranges less than 100 nM and between 100 nM and 1 μM (given as 100-1000)

T2 sequence (P42338 whole entry): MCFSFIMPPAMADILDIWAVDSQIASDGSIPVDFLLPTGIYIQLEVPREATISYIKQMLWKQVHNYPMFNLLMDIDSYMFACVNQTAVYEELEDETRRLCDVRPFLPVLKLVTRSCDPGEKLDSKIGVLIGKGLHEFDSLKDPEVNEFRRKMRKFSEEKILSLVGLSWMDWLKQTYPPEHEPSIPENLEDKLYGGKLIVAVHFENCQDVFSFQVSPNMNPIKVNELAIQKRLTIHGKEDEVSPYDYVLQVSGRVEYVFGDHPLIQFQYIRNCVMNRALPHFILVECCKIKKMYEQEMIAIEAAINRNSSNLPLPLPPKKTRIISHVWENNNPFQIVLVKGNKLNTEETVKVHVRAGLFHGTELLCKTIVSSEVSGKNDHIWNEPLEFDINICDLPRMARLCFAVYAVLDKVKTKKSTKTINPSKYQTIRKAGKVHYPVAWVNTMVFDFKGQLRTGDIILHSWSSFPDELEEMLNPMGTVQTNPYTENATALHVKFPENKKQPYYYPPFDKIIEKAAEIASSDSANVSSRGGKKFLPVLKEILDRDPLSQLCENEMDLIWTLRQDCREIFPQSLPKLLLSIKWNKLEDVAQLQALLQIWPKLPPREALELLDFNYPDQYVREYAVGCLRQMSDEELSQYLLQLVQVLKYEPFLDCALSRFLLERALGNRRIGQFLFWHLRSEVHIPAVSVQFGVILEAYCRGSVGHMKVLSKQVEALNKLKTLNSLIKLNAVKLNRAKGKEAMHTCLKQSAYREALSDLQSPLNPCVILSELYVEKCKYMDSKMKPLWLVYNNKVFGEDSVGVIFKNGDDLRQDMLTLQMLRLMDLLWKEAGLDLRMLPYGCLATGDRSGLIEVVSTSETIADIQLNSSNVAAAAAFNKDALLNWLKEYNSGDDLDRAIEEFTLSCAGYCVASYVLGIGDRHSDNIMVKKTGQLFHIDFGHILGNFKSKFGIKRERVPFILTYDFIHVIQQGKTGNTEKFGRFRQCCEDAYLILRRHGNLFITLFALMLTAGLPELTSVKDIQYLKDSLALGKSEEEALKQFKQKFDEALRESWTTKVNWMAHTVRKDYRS
T2 sequence (P27986 whole entry partner): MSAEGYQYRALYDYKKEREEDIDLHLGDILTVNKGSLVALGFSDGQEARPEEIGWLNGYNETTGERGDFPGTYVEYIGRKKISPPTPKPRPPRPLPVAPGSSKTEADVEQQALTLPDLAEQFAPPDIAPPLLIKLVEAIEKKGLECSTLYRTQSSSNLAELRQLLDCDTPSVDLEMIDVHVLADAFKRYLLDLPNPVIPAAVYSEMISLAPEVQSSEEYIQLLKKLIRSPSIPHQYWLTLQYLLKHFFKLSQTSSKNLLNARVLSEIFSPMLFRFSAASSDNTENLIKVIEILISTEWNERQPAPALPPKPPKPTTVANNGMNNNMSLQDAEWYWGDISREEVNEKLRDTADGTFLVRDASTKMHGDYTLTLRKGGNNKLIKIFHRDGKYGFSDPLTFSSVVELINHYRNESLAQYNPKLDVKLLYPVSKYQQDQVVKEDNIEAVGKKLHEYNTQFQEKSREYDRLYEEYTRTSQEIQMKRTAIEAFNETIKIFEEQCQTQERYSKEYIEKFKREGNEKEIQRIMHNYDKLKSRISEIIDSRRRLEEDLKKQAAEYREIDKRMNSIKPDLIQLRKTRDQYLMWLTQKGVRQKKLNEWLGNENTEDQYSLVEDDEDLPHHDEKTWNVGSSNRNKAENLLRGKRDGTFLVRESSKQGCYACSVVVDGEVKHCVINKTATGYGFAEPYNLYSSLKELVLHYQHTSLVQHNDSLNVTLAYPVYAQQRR
T4 sequence (P42336 whole entry): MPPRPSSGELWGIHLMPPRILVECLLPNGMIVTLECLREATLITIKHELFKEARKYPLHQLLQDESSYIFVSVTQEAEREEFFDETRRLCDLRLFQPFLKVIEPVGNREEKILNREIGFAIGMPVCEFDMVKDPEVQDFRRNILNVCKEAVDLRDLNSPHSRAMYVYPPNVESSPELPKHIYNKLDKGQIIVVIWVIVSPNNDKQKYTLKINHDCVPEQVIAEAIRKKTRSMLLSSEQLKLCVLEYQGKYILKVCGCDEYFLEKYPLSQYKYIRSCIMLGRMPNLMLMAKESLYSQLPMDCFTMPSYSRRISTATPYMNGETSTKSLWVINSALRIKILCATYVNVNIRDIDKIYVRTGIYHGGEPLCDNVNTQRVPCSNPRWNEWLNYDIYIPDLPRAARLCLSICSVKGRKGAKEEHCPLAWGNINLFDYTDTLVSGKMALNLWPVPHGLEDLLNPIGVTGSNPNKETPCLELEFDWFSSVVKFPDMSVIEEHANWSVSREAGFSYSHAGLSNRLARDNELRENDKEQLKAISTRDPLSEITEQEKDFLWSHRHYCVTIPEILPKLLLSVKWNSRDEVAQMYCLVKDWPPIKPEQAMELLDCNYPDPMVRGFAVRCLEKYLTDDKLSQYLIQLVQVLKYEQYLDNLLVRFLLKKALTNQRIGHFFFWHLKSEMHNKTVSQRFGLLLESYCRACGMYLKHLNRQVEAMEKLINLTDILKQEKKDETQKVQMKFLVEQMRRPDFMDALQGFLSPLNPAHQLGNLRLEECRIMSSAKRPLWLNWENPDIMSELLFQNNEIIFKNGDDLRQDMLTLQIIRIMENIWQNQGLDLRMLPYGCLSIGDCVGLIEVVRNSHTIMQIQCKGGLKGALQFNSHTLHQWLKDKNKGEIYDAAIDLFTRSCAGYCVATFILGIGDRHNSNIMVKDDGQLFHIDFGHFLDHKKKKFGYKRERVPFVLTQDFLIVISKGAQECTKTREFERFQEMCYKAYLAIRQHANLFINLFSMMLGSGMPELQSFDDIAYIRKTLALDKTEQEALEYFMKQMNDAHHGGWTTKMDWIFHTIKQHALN
T4 sequence (P27986 whole entry partner): as the sequence (P27986 whole entry partner) above
T3 sequence (O00329 whole entry): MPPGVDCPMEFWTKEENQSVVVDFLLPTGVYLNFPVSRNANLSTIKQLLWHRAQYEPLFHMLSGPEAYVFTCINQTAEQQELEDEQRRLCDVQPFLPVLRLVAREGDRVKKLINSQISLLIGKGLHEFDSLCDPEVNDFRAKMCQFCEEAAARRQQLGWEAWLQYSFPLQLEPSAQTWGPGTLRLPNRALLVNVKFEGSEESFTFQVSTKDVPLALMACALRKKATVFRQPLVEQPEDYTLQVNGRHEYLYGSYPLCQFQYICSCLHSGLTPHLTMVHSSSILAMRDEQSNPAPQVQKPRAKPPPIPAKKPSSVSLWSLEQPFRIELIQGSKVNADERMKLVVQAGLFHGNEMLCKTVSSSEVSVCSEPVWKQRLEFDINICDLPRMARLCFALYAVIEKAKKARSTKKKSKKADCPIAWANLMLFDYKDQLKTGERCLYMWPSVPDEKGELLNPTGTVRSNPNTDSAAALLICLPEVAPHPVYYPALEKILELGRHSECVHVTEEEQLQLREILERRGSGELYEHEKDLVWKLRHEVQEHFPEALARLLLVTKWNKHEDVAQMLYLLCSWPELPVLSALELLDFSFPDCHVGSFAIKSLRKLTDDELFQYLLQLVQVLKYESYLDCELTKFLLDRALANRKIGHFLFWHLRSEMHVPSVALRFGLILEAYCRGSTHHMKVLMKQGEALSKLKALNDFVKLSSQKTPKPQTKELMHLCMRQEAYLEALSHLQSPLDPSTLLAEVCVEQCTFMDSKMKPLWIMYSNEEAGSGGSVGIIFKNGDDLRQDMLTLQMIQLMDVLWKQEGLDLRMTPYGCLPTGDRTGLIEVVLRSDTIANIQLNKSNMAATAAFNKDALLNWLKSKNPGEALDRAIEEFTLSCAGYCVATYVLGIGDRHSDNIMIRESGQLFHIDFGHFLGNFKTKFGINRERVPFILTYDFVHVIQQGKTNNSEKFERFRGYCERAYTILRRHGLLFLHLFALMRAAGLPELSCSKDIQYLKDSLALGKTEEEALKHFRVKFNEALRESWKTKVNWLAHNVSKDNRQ
T3 sequence (P27986 whole entry partner): as the sequence (P27986 whole entry partner) above
T1 sequence (P48736 whole entry): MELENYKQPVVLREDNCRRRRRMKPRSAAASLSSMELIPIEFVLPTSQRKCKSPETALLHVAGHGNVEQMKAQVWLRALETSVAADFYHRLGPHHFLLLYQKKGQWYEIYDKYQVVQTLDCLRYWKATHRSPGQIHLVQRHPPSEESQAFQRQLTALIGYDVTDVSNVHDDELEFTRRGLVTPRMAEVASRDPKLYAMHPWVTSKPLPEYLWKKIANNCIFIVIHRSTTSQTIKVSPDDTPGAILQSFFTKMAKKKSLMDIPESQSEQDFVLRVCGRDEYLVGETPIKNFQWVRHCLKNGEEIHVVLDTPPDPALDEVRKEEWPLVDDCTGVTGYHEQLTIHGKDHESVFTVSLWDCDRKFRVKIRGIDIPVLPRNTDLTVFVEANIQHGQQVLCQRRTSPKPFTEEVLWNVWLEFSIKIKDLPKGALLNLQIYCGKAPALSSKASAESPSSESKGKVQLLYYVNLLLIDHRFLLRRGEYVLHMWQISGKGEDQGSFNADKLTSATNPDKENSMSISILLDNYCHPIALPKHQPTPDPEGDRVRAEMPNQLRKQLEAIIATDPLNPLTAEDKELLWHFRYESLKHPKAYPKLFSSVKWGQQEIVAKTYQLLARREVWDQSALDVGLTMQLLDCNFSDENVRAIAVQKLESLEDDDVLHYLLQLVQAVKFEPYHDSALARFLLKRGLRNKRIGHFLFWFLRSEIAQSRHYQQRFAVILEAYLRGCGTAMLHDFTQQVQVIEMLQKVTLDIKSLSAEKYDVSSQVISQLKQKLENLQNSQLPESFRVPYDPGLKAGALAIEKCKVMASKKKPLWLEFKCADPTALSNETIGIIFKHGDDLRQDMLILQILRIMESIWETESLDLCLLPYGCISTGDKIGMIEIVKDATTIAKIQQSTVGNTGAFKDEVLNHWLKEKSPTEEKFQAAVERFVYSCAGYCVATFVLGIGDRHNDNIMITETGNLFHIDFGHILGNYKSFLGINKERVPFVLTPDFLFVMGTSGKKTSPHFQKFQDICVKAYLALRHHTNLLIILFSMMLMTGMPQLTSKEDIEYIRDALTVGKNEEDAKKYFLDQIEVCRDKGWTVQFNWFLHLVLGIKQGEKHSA

Row | Compound | IC50 (PI3Kγ) [nM] | IC50 (PI3Kβ) [nM] | IC50 (PI3Kδ) [nM] | IC50 [2] [nM] | also measured
1 | C[C@H](Nc1cc(N)ncn1)c1cc2cccc(Cl)c2c(=O)n1-c1ccccc1 [Compound 78, (S)-3-(1-(6-aminopyrimidin-4-ylamino)ethyl)-8-chloro-2-phenylisoquinolin-1(2H)-one] | 1000 to 10000 | – | – | – | –
2 | COC(=O)c1cccc(-n2c([C@H](C)Nc3nc(N)ncc3C#N)cc3cccc(Cl)c3c2=O)c1 [Compound 316] | 1000 to 10000 | – | – | < 100 | IC50 [1, 3]: < 100 nM; IC50 (PI3Kα): 1000 to 10000 nM
3 | C[C@H](Nc1nc(Cl)ncc1[N+](=O)[O-])c1cc2cccc(Cl)c2c(=O)n1-c1ccccc1 [Compound 75, (S)-8-chloro-3-(1-(2-chloro-5-nitropyrimidin-4-ylamino)ethyl)-2-phenylisoquinolin-1(2H)-one] | 1000 to 10000 | – | – | – | –
4 | C[C@H](Nc1ncnc(N)c1C#N)c1cc2cccc(Cl)c2c(C(=O)NC2CCOCC2)n1 [Compound 353] | 1000 to 10000 | – | – | < 100 | IC50 ([1]; range between 1 μM and 10 μM): 1000 to 10000 nM
5 | COc1ncc(-c2cccc3cc([C@H](C)Nc4ncnc(N)c4C#N)n(-c4ccon4)c(=O)c23)cn1 [Compound 337] | 1000 to 10000 | – | – | < 100 | IC50 ([1]; range between 1 μM and 10 μM): 1000 to 10000 nM; IC50 (PI3Kα): 1000 to 10000 nM
6 | Cc1ncc(-c2cccc3cc([C@H](C)Nc4nc(N)ncc4C#N)n(-c4ccon4)c(=O)c23)cn1 [Compound 334] | 1000 to 10000 | – | – | < 100 | IC50 ([1]; range between 1 μM and 10 μM): 1000 to 10000 nM
7 | COc1ncc(-c2cccc3cc([C@H](C)Nc4nc(N)ncc4C#N)n(-c4ccon4)c(=O)c23)cn1 [Compound 333] | 1000 to 10000 | – | – | < 100 | IC50 ([1]; range between 1 μM and 10 μM): 1000 to 10000 nM
8 | CC(=O)Nc1cnc(N)nc1N[C@@H](C)c1cc2cccc(Cl)c2c(=O)n1-c1ccccc1 [Compound 173] | 1000 to 10000 | – | – | – | –
9 | COc1cc(-c2cccc3cc([C@H](C)Nc4nc(N)ncc4C(=O)N4CCC4)n(-c4ccccc4)c(=O)c23)ccn1 [Compound 154] | – | – | 1000 to 10000 | – | –
10 | C[C@H](Nc1nc(N)ncc1C#N)c1cc2cccc(-c3ccn(C)c(=O)c3)c2c(=O)n1-c1ccccc1 [Compound 182] | 1000 to 10000 | – | 1000 to 10000 | – | –
11 | C[C@H](Nc1nc(N)ncc1C#N)c1cc2cccc(Cl)c2c(=O)n1-c1ccc(F)c(F)c1 [Compound 270] | – | 1000 to 10000 | 1000 to 10000 | < 100 | IC50 [1, 3]: < 100 nM
12 | C[C@H](Nc1nc(N)ncc1-c1ccc(S(C)(=O)=O)nc1)c1cc2cccc(Cl)c2c(=O)n1-c1ccccc1 [Compound 402] | – | 1000 to 10000 | 1000 to 10000 | < 100 | IC50 ([1]; range between 1 μM and 10 μM): 1000 to 10000 nM
13 | COc1cnc(-c2cccc3cc([C@H](C)Nc4nc(N)ncc4C#N)n(-c4ccccc4)c(=O)c23)nc1 [Compound 228] | – | – | 1000 to 10000 | – | –

Further lines, with some results ahead:

Row | IC50 (PI3Kγ) [nM] | IC50 (PI3Kβ) [nM] | IC50 (PI3Kδ) [nM] | IC50 [2] [nM] | Compound | also measured
14 | – | 1000 to 10000 | 1000 to 10000 | < 100 | COc1cc(-n2c([C@H](C)Nc3nc(N)ncc3C#N)cc3cccc(Cl)c3c2=O)ccc1F [Compound 291] | IC50 [1, 3]: < 100 nM
15 | 1000 to 10000 | – | 1000 to 10000 | – | COc1cc(-c2cccc3cc([C@H](C)Nc4nc(N)ncc4C(=O)N(C)CCO)n(-c4ccccc4)c(=O)c23)ccn1 [Compound 114] | –
16 | – | 1000 to 10000 | 1000 to 10000 | < 100 | C[C@H](Nc1nc(N)ncc1C#N)c1cc2cccc(Cl)c2c(=O)n1C1CC1 [Compound 104] | IC50 [1, 3]: 100 to 1000 nM
17 | – | 1000 to 10000 | 1000 to 10000 | < 100 | C[C@H](Nc1nc(N)ncc1C#N)c1cc2cccc(Cl)c2c(=O)n1-c1c(F)cccc1F [Compound 279] | IC50 [1, 3]: < 100 nM
18 | – | – | 1000 to 10000 | – | C[C@H](Nc1nc(N)ncc1-c1ccccc1)c1cc2cccc(Cl)c2c(=O)n1-c1ccccc1 [Compound 82, (S)-3-(1-(2-amino-5-phenylpyrimidin-4-ylamino)ethyl)-8-chloro-2-phenylisoquinolin-1(2H)-one] | EC50 (Balb/c splenic B cells): 1000 to 10000 nM
19 | 1000 to 10000 | – | 1000 to 10000 | – | C[C@H](Nc1cc(Cl)ncn1)c1cc2cccc(Cl)c2c(=O)n1-c1ccccc1 [Compound 77, (S)-8-chloro-3-(1-(6-chloropyrimidin-4-ylamino)ethyl)-2-phenylisoquinolin-1(2H)-one] | –
20 | – | 1000 to 10000 | 1000 to 10000 | < 100 | C[C@H](Nc1nc(N)ncc1C#N)c1cc2cccc(-c3cncc(NS(C)(=O)=O)c3)c2c(=O)n1-c1ccccc1 [Compound 191] | IC50 ([1]; range between 1 μM and 10 μM): 1000 to 10000 nM; IC50 (PI3Kα): 1000 to 10000 nM
21 | 1000 to 10000 | – | 1000 to 10000 | – | COc1cc(-c2cccc3cc([C@H](C)Nc4nc(N)ncc4C(=O)NC4CC4)n(-c4ccccc4)c(=O)c23)ccn1 [Compound 441] | EC50 (Balb/c splenic B cells): 1000 to 10000 nM
22 | – | 1000 to 10000 | 1000 to 10000 | – | C[C@H](Nc1nc(N)ncc1C#N)c1cc2cccc(Cl)c2c(=O)n1-c1ccc(C#N)cc1 [Compound 220] | –
23 | 1000 to 10000 | – | 1000 to 10000 | – | C[C@H](Nc1nc(N)ncc1C(=O)N1CC(F)(F)C1)c1cc2cccc(Cl)c2c(=O)n1-c1ccccc1 [Compound 434] | –
24 | – | – | 1000 to 10000 | – | C[C@H](Nc1nc(N)ncc1S(C)(=O)=O)c1cc2cccc(Cl)c2c(=O)n1-c1ccccc1 [Compound 85, (S)-3-(1-(2-amino-5-(methylsulfonyl)pyrimidin-4-ylamino)ethyl)-8-chloro-2-phenylisoquinolin-1(2H)-one] | –
25 | – | – | 1000 to 10000 | – | COc1cccc2cc([C@H](C)Nc3nc(N)ncc3C#N)n(-c3ccccc3)c(=O)c12 [Compound 148] | –
26 | – | 1000 to 10000 | 1000 to 10000 | < 100 | C[C@H](Nc1nc(N)ncc1-c1cncc(S(C)(=O)=O)c1)c1cc2cccc(Cl)c2c(=O)n1-c1ccccc1 [Compound 401] | IC50 [1, 3]: 100 to 1000 nM; IC50 (PI3Kα): 1000 to 10000 nM
27 | 1000 to 10000 | – | 1000 to 10000 | – | C[C@H](Nc1nc(N)ncc1NC(=O)c1ccccc1)c1cc2cccc(Cl)c2c(=O)n1-c1ccccc1 [Compound 175] | –
28 | – | 1000 to 10000 | 1000 to 10000 | < 100 | C[C@H](Nc1nc(N)ncc1C#N)c1cc2cccc(-c3ccc(=O)n(C)c3)c2c(=O)n1-c1ccon1 [Compound 338] | IC50 ([1]; range between 1 μM and 10 μM): 1000 to 10000 nM; IC50 (PI3Kα): 1000 to 10000 nM
29 | 1000 to 10000 | – | 1000 to 10000 | – | COc1cc(-c2cccc3cc([C@H](C)Nc4nc(N)ncc4C(=O)N4CCOCC4)n(-c4ccccc4)c(=O)c23)ccn1 [Compound 119] | –
